# From ChEMBL document CHEMBL3259703, “Synthesis and preliminary biological evaluation of 1,2,3-triazole-Jaspine B hybrids as potential cytotoxic agents” (Eur J Med Chem, 2014)
# Experiments:
# [1] = Antiproliferative activity against human EC9706 cells after 48 hrs by MTT assay; type: functional, cell-based; conditions: EC9706, 48 h
# [2] = test system: MGC-803; assay: Antiproliferative activity against human MGC803 cells after 48 hrs by MTT assay; type: functional, cell-based; conditions: MGC-803, 48 h
# [3] = test system: MCF7; assay: Antiproliferative activity against human MCF7 cells after 48 hrs by MTT assay; type: functional, cell-based; conditions: MCF7, 48 h
# [4] = test system: MCF7; assay: Induction of apoptosis in human MCF7 cells assessed as late apoptotic cells at 8 uM after 16 hrs using Annexin V/PI double staining by flow cytometry (reference value: 0.7 %); type: functional
# [5] = test system: MCF7; assay: Induction of apoptosis in human MCF7 cells assessed as necrotic cells at 8 uM after 16 hrs using Annexin V/PI double staining by flow cytometry (reference value: 0.7 %); type: functional
# [6] = test system: MCF7; assay: Cell cycle arrest in human MCF7 cells assessed as accumulation at G0/G1 phase at 2 uM after 8 hrs using propidium iodide staining by flow cytometry (reference value: 47.36 %); type: functional
# [7] = test system: MCF7; assay: Cell cycle arrest in human MCF7 cells assessed as accumulation at S phase at 2 uM after 8 hrs using propidium iodide staining by flow cytometry (reference value: 33.03 %); type: functional
# [8] = test system: MCF7; assay: Cell cycle arrest in human MCF7 cells assessed as accumulation at G2/M phase at 2 uM after 8 hrs using propidium iodide staining by flow cytometry (reference value: 19.35 %); type: functional
# [9] = test system: MCF7; assay: Cell cycle arrest in human MCF7 cells assessed as accumulation at G0/G1 phase at 4 uM after 8 hrs using propidium iodide staining by flow cytometry (reference value: 47.36 %); type: functional
# [10] = test system: MCF7; assay: Cell cycle arrest in human MCF7 cells assessed as accumulation at S phase at 4 uM after 8 hrs using propidium iodide staining by flow cytometry (reference value: 33.03 %); type: functional
# [11] = test system: MCF7; assay: Cell cycle arrest in human MCF7 cells assessed as accumulation at G2/M phase at 4 uM after 8 hrs using propidium iodide staining by flow cytometry (reference value: 19.35 %); type: functional
# [12] = test system: MCF7; assay: Cell cycle arrest in human MCF7 cells assessed as accumulation at G0/G1 phase at 8 uM after 8 hrs using propidium iodide staining by flow cytometry (reference value: 47.36 %); type: functional
# [13] = test system: MCF7; assay: Cell cycle arrest in human MCF7 cells assessed as accumulation at S phase at 8 uM after 8 hrs using propidium iodide staining by flow cytometry (reference value: 33.03 %); type: functional
# [14] = test system: MCF7; assay: Cell cycle arrest in human MCF7 cells assessed as accumulation at G2/M phase at 8 uM after 8 hrs using propidium iodide staining by flow cytometry (reference value: 19.35 %); type: functional
# [15] = test system: MCF7; assay: Cell cycle arrest in human MCF7 cells assessed as accumulation at G0/G1 phase at 2 uM after 16 hrs using propidium iodide staining by flow cytometry (reference value: 46.01 %); type: functional
# [16] = test system: MCF7; assay: Cell cycle arrest in human MCF7 cells assessed as accumulation at S phase at 2 uM after 16 hrs using propidium iodide staining by flow cytometry (reference value: 30.05 %); type: functional
# [17] = test system: MCF7; assay: Cell cycle arrest in human MCF7 cells assessed as accumulation at G2/M phase at 2 uM after 16 hrs using propidium iodide staining by flow cytometry (reference value: 20.08 %); type: functional
# [18] = test system: MCF7; assay: Cell cycle arrest in human MCF7 cells assessed as accumulation at G0/G1 phase at 4 uM after 16 hrs using propidium iodide staining by flow cytometry (reference value: 46.01 %); type: functional
# [19] = test system: MCF7; assay: Cell cycle arrest in human MCF7 cells assessed as accumulation at S phase at 4 uM after 16 hrs using propidium iodide staining by flow cytometry (reference value: 30.05 %); type: functional
# [20] = test system: MCF7; assay: Cell cycle arrest in human MCF7 cells assessed as accumulation at G2/M phase at 4 uM after 16 hrs using propidium iodide staining by flow cytometry (reference value: 20.08 %); type: functional
# [21] = test system: MCF7; assay: Cell cycle arrest in human MCF7 cells assessed as accumulation at G0/G1 phase at 8 uM after 16 hrs using propidium iodide staining by flow cytometry (reference value: 46.01 %); type: functional
# [22] = test system: MCF7; assay: Cell cycle arrest in human MCF7 cells assessed as accumulation at S phase at 8 uM after 16 hrs using propidium iodide staining by flow cytometry (reference value: 30.05 %); type: functional
# [23] = test system: MCF7; assay: Cell cycle arrest in human MCF7 cells assessed as accumulation at G2/M phase at 8 uM after 16 hrs using propidium iodide staining by flow cytometry (reference value: 20.08 %); type: functional
# [24] = Ratio of IC50 Jaspine B to compound IC50 for human EC9706 cells after 48 hrs by MTT assay; type: functional
# [25] = test system: MGC-803; assay: Ratio of IC50 Jaspine B to compound IC50 for human MGC803 cells after 48 hrs by MTT assay; type: functional
# [26] = test system: MCF7; assay: Ratio of IC50 Jaspine B to compound IC50 for human MCF7 cells after 48 hrs by MTT assay; type: functional
# [27] = test system: MCF7; assay: Induction of apoptosis in human MCF7 cells assessed as viable cells at 2 uM after 8 hrs using Annexin V/PI double staining by flow cytometry (reference value: 84.3 %); type: functional; conditions: MCF7, 8 h, read-out: Activity
# [28] = test system: MCF7; assay: Induction of apoptosis in human MCF7 cells assessed as early apoptotic cells at 2 uM after 8 hrs using Annexin V/PI double staining by flow cytometry (reference value: 8.2 %); type: functional
# [29] = test system: MCF7; assay: Induction of apoptosis in human MCF7 cells assessed as late apoptotic cells at 2 uM after 8 hrs using Annexin V/PI double staining by flow cytometry (reference value: 6.8 %); type: functional
# [30] = test system: MCF7; assay: Induction of apoptosis in human MCF7 cells assessed as necrotic cells at 2 uM after 8 hrs using Annexin V/PI double staining by flow cytometry (reference value: 0.6 %); type: functional
# [31] = test system: MCF7; assay: Induction of apoptosis in human MCF7 cells assessed as viable cells at 4 uM after 8 hrs using Annexin V/PI double staining by flow cytometry (reference value: 84.3 %); type: functional; conditions: MCF7, 8 h, read-out: Activity
# [32] = test system: MCF7; assay: Induction of apoptosis in human MCF7 cells assessed as early apoptotic cells at 4 uM after 8 hrs using Annexin V/PI double staining by flow cytometry (reference value: 8.2 %); type: functional
# [33] = test system: MCF7; assay: Induction of apoptosis in human MCF7 cells assessed as late apoptotic cells at 4 uM after 8 hrs using Annexin V/PI double staining by flow cytometry (reference value: 6.8 %); type: functional
# [34] = test system: MCF7; assay: Induction of apoptosis in human MCF7 cells assessed as necrotic cells at 4 uM after 8 hrs using Annexin V/PI double staining by flow cytometry (reference value: 0.6 %); type: functional
# [35] = test system: MCF7; assay: Induction of apoptosis in human MCF7 cells assessed as viable cells at 8 uM after 8 hrs using Annexin V/PI double staining by flow cytometry (reference value: 84.3 %); type: functional; conditions: MCF7, 8 h, read-out: Activity
# [36] = test system: MCF7; assay: Induction of apoptosis in human MCF7 cells assessed as early apoptotic cells at 8 uM after 8 hrs using Annexin V/PI double staining by flow cytometry (reference value: 8.2 %); type: functional
# [37] = test system: MCF7; assay: Induction of apoptosis in human MCF7 cells assessed as late apoptotic cells at 8 uM after 8 hrs using Annexin V/PI double staining by flow cytometry (reference value: 6.8 %); type: functional
# [38] = test system: MCF7; assay: Induction of apoptosis in human MCF7 cells assessed as necrotic cells at 8 uM after 8 hrs using Annexin V/PI double staining by flow cytometry (reference value: 0.6 %); type: functional
# [39] = test system: MCF7; assay: Induction of apoptosis in human MCF7 cells assessed as viable cells at 2 uM after 16 hrs using Annexin V/PI double staining by flow cytometry (reference value: 87.5 %); type: functional; conditions: MCF7, 16 h, read-out: Activity
# [40] = test system: MCF7; assay: Induction of apoptosis in human MCF7 cells assessed as early apoptotic cells at 2 uM after 16 hrs using Annexin V/PI double staining by flow cytometry (reference value: 11.1 %); type: functional
# [41] = test system: MCF7; assay: Induction of apoptosis in human MCF7 cells assessed as late apoptotic cells at 2 uM after 16 hrs using Annexin V/PI double staining by flow cytometry (reference value: 0.7 %); type: functional
# [42] = test system: MCF7; assay: Induction of apoptosis in human MCF7 cells assessed as necrotic cells at 2 uM after 16 hrs using Annexin V/PI double staining by flow cytometry (reference value: 0.7 %); type: functional
# [43] = test system: MCF7; assay: Induction of apoptosis in human MCF7 cells assessed as viable cells at 4 uM after 16 hrs using Annexin V/PI double staining by flow cytometry (reference value: 87.5 %); type: functional; conditions: MCF7, 16 h, read-out: Activity
# [44] = test system: MCF7; assay: Induction of apoptosis in human MCF7 cells assessed as early apoptotic cells at 4 uM after 16 hrs using Annexin V/PI double staining by flow cytometry (reference value: 11.1 %); type: functional
# [45] = test system: MCF7; assay: Induction of apoptosis in human MCF7 cells assessed as late apoptotic cells at 4 uM after 16 hrs using Annexin V/PI double staining by flow cytometry (reference value: 0.7 %); type: functional
# [46] = test system: MCF7; assay: Induction of apoptosis in human MCF7 cells assessed as necrotic cells at 4 uM after 16 hrs using Annexin V/PI double staining by flow cytometry (reference value: 0.7 %); type: functional
# [47] = test system: MCF7; assay: Induction of apoptosis in human MCF7 cells assessed as viable cells at 8 uM after 16 hrs using Annexin V/PI double staining by flow cytometry (reference value: 87.5 %); type: functional; conditions: MCF7, 16 h, read-out: Activity
# [48] = test system: MCF7; assay: Induction of apoptosis in human MCF7 cells assessed as early apoptotic cells at 8 uM after 16 hrs using Annexin V/PI double staining by flow cytometry (reference value: 11.1 %); type: functional
smiles,measurement,setting,value
CCCCCCCCCCCCCCn1cc(COC[C@@H]2OC[C@H](N)[C@H]2O)nn1,IC50,[1],6.68 µM
same,IC50,[2],8.79 µM
same,IC50,[3],2.45 µM
CCCCCCCCCCCCCCCCn1cc(COC[C@@H]2OC[C@H](N)[C@H]2O)nn1,IC50,[1],6.31 µM
same,IC50,[2],5.34 µM
same,IC50,[3],2.26 µM
CCCCCCCCCCCCCCCCCCn1cc(COC[C@@H]2OC[C@H](N)[C@H]2O)nn1,Activity,[4],12.5%
same,Activity,[5],5.5%
same,Activity,[6],42.27%
same,Activity,[7],29.66%
same,Activity,[8],27.97%
same,Activity,[9],33.13%
same,Activity,[10],28.66%
same,Activity,[11],30.72%
same,Activity,[12],19.11%
same,Activity,[13],36.69%
same,Activity,[14],39.13%
same,Activity,[15],48.63%
same,Activity,[16],20.04%
same,Activity,[17],28.6%
same,Activity,[18],42.05%
same,Activity,[19],17.16%
same,Activity,[20],36.4%
same,Activity,[21],25.7%
same,Activity,[22],23.53%
same,Activity,[23],47.4%
same,Ratio IC50,[24],2
same,Ratio IC50,[25],2
same,Ratio IC50,[26],2
same,IC50,[1],2.29 µM
same,IC50,[2],3.11 µM
same,IC50,[3],1.93 µM
same,viability at 2 µM,[27],81%
same,Activity,[28],12%
same,Activity,[29],5.9%
same,Activity,[30],1.2%
same,viability at 4 µM,[31],71.5%
same,Activity,[32],13.9%
same,Activity,[33],14.1%
same,Activity,[34],0.5%
same,viability at 8 µM,[35],56.3%
same,Activity,[36],23.8%
same,Activity,[37],18.6%
same,Activity,[38],1.4%
same,viability at 2 µM,[39],58.5%
same,Activity,[40],31.4%
same,Activity,[41],5.1%
same,Activity,[42],4.9%
same,viability at 4 µM,[43],38.2%
same,Activity,[44],45%
same,Activity,[45],11.6%
same,Activity,[46],5.2%
same,viability at 8 µM,[47],24%
same,Activity,[48],57.9%
O=c1[nH]cc(F)c(=O)[nH]1 [FLUOROURACIL],IC50,[1],9.45 µM
same,IC50,[2],11.3 µM
same,IC50,[3],3.52 µM
CCCCCCCCCCCCCC[C@@H]1OC[C@H](N)[C@@H]1O [PACHASTRISSAMINE],IC50,[1],6.12 µM
same,IC50,[2],5.1 µM
same,IC50,[3],4.84 µM
